Test results reported in patent US20180235917A1, “COMPOSITIONS, METHODS AND KITS FOR TREATMENT OF DIABETES AND/OR […]” (NuSirt Sciences, Inc., priority 2014, published 2018).
Read-outs that look alike come from different tables or passages of the source. One block for each compound: values may come before it.

Columns and labels:
[1] = tested on: adipocytes (3T3-L1) and myotubes (C2C12); test: Fatty acid oxidation and dose-response screening, cell type not stated; format: cell-based, mouse; conditions: for synergy with leucine or HMB in stimulating fatty acid oxidation: compound at its no-effect concentration with leucine 0.5 mM or HMB 5 μM
diabetic db/db mice = conditions: for decrease in blood glucose over the 30 minute linear portion of the insulin tolerance test: insulin 0.75 U/kg
[2] = tested on: diet-induced obesity mice; test: High fat diet-induced obese, insulin resistant mice: GTT, ITT, glucose, insulin, HOMAIR, muscle Western blot (Example 12); format: in vivo, C57/BL6 mice; conditions: HFD, no metformin; for glucose tolerance test (fasting and post-prandial hyperglycemia): Leu 24 g/kg diet with or without Res 12.5 mg/kg diet
[3] = tested on: LDL receptor knockout mice; test: LDL receptor knockout mice on western diet: plasma lipids, atherosclerosis, macrophage infiltration (Example 7); format: in vivo, mouse
Text: LDL receptor knockout (LDLRKO) mice were obtained from Jackson Laboratories (Bar Harbor, Me.), and housed in groups under room temperature in a humidity-controlled environment with a regular light and dark cycle. The mice were provided free access to an atherogenic western diet (WD) containing 0.21% cholesterol (by weight) and 40% calories from fat and water for 4 weeks prior to treatment. For treatment, the mice were given (a) the WD diet alone, (b) WD and 24 g of leucine/kg diet, (c) WD and 24 g of leucine/kg diet and 50 mg nicotinic acid/kg diet, (d) WD and 24 g of leucine/kg diet and 250 mg nicotinic acid/kg diet, or (e) WD and 1000 mg nicotinic acid/kg diet; this is approximately equivalent to a low therapeutic dose of nicotinic acid in hypercholesterolemic humans (˜1,500 mg/day). The treatments were administered for eight weeks continuously.
Blood samples of the mice in all groups were obtained from tails of the mice at following four and eight weeks of administration. The serum/plasma levels of triglyceride, total cholesterol and cholesterol esters were measured. Following treatment, food was removed for four hours and the animals were euthanized.
Blood was collected into EDTA-coated tubes to analyze plasma lipid and cholesterol profiles. Plasma total cholesterol (TC, Pointe Scientific, Canton, Mich.), free cholesterol (FC, Wako, Richmond, Va.) and triglyceride (TG, Wako, Richmond, Va.) concentrations were measured using enzymatic assays according to manufacturer's instructions. Cholesterol ester (CE) was calculated as the difference between TC and FC.
To assess atherosclerosis, the circulatory system was perfused following euthanasia with phosphate-buffered saline (PBS) before removing the heart and aorta. The upper one-third of the heart was dissected and embedded in Optimal Cutting Temperature Compound (Sakura Tissue-Tek, Torrance, Calif.), frozen, and stored at −80° C. Blocks were serially cut at 8 μm intervals and stained with hematoxylin and 0.5% Oil Red O (Sigma-Aldrich) to evaluate aortic sinus atherosclerotic intimal area. Atherosclerotic lesion area and Oil Red O positive area were quantified using Image-Pro Plus software (Media Cybernetics, Bethesda, Md.). Whole aorta (from sinotubular junction to iliac bifurcate) was dissected and fixed in 10% formalin, and the adventitia was cleaned. Aortas were opened along the longitudinal axis and pinned onto black silicon elastomer (Rubber-Cal, Santa Ana, Calif.) for the quantification of atherosclerotic lesion area. The percentage of total aortic surface covered with atherosclerotic lesions was quantified by Image-Pro Plus software (Media Cybernetics, Bethesda, Md.) and used to determine the total lesion area.
To assess macrophage infiltration, Sections of aortic sinus were immuno-stained with rat monoclonal antibody against macrophage-specific CD68 (Clone FA11, 1:75, AbD Serotec, Raleigh, N.C.) followed by staining with alkaline phosphatase-conjugated mouse anti-rat (for CD68, 1:50) secondary antibodies (Jackson ImmunoResearch laboratories, West Grove, Pa.). Control slides contain no primary antibody. The CD68-positive areas were analyzed using Image-Pro Plus software (Media Cybernetics, Bethesda, Md.).

Caenorhabditis elegans = test: Lifespan of C. elegans (Example 10); format: in vivo; conditions: basal conditions; leucine 0.5 mM, nicotinic acid 10 nM
Description: Eggs were hatched on a starved plate overnight. […] All treatments were added with the indicated concentrations to E. coli the agar plates. […] The worms were maintained at 20° C. throughout the duration of the study. Worms were transferred to new plates daily to eliminate progeny. […] The study was continued until the last animal was dead. Data were analyzed via Kaplan-Meier survival curves using Prism 6 (GraphPad Software) and statistical significance was determined by the Log-rank (Mantel-Cox) test.

Sirt3 = target: T1, Sirt3 (Mus musculus, UniProt Q8R104); test: Sirt3 stimulation; format: cell-based; conditions: leucine 0.5 mM, HMB 5 μM, resveratrol 200 nM
T1 construct: endogenous in cells; host or cells: 3T3-L1 adipocytes and/or C2C12 myotubes (inferred)
T1 sequence (Q8R104 1-334): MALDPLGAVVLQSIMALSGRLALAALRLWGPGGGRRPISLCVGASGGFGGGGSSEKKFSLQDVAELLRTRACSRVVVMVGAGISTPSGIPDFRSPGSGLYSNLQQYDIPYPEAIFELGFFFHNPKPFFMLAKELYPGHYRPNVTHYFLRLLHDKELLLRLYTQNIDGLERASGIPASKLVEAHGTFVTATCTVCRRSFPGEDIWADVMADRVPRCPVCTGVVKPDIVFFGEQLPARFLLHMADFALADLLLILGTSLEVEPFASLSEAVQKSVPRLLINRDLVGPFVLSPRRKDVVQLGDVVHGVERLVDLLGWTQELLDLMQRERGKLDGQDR

C2C12 myotubes = test: Glucose utilization (extracellular acidification response to glucose) in myotubes; format: cell-based, mouse
[4] = high dose metformin 300 mg/kg bw

Compound: OC[C@@H](O)[C@@H](O)[C@H](O)[C@@H](O)CO [Sorbitol]
synergy with leucine or HMB in stimulating fatty acid oxidation [1]: no synergy

Compound: CN(C)C(=N)N=C(N)N [Metformin]
reduction of plasma insulin (diabetic db/db mice; db/db mice, 2 weeks, high dose metformin 300 mg/kg bw (1.5 g/kg diet)): 27%
effect on plasma glucose (diabetic db/db mice; [4]): no significant effect
effects on body composition (diabetic db/db mice; [4]): no significant effects
plasma insulin (diabetic db/db mice; high dose metformin 300 mg/kg bw, control 62): 45 uU/mL
effects on any variable studied (diabetic db/db mice; low dose (150 mg/kg) and very low dose (50 mg/kg) metformin alone): no significant independent effects
decrease in blood glucose over the 30 minute linear portion of the insulin tolerance test (diabetic db/db mice; low or very low dose of metformin, alone or as blend): minimal changes
effect on visceral fat mass (diabetic db/db mice; metformin at any dosage in the absence of HMB): not affected
decrease in blood glucose over the 30 minute linear portion of the insulin tolerance test (diabetic db/db mice; standard metformin dose (1.5 g/kg diet)): ~60 mg/dL

Compound: Cn1c(=O)c2[nH]cnc2n(C)c1=O [Theophylline, reference compound]
concentrations that exert no effect (dose-response curves; sub-therapeutic dose) ([1]; compound alone): below 1 μM

Compound: O=C(O)/C=C/c1ccc(O)c(O)c1 [Caffeic acid]
concentrations that exert no effect (dose-response curves; sub-therapeutic dose) ([1]; compound alone): ≤ 1000 nM

Compound: CC(C)Cn1c(=O)n(C)c(=O)c2[nH]cnc21 [IBMX, 3-isobutyl-1-methylxanthine, reference compound]
synergy with leucine or HMB in stimulating fatty acid oxidation [1]: weak but statistically significant synergy with HMB, but not leucine

Compound: O[C@H]1[C@H](O)[C@@H](O)[C@H](O)[C@@H](O)[C@H]1O [Myo-inositol]
synergy with leucine or HMB in stimulating fatty acid oxidation [1]: no synergy

Compound: O=c1oc2c(O)c(O)cc3c(=O)oc4c(O)c(O)cc1c4c23 [Ellagic acid]
activity in dose-response curves ([1]; even at high concentrations (50 μM)): little activity

stimulation of Sirt3 (Sirt3): no independent effects
Compound: CC(C)C[C@H](N)C(=O)O [Leucine, leucine]
glucose tolerance test (fasting and post-prandial hyperglycemia) [2]: not significantly affected
glucose tolerance test (fasting and post-prandial hyperglycemia) ([2]; listed as leucine): no independent effect
insulin tolerance test ([2]; Leu 24 g/kg diet): no independent effect
decrease in aortic macrophage infiltration (CD68 positive area) ([3]; eight weeks, doses as E77): significant independent effect
decrease in atherosclerotic lesion size (lesion and lipid area) ([3]; eight weeks, nicotinic acid 1,000 mg/kg diet, leucine 24 g/kg diet, or leucine + nicotinic acid 50 mg/kg diet, vs western diet alone): exerted an independent effect
decrease in plasma cholesterol esters ([3]; four weeks, doses as E73): no independent effect
decrease in plasma total cholesterol ([3]; four weeks, western diet + nicotinic acid 1,000 mg/kg diet, leucine 24 g/kg diet, or leucine + nicotinic acid 50 or 250 mg/kg diet): no independent effect
effect on lifespan (Caenorhabditis elegans): no independent effect
increase in insulin-stimulated glucose utilization (C2C12 myotubes; C2C12 myotubes, 5 nM insulin, galegine 5 μM, leucine 0.5 mM): no effect

Compound: O=C(O[C@@H]1Cc2c(O)cc(O)cc2O[C@@H]1c1cc(O)c(O)c(O)c1)c1cc(O)c(O)c(O)c1 [EGCG, epigallocatechin gallate]
direct stimulation of fatty acid oxidation ([1]; compound alone): minimally active
synergy with leucine or HMB in stimulating fatty acid oxidation [1]: do not detect synergistic effects
increase in glucose utilization in myotubes (C2C12 myotubes; extracellular acidification response to glucose, concentrations as in E26): no independent effect

Compound: OC[C@@H](O)[C@@H](O[C@H]1O[C@H](CO)[C@@H](O)[C@H](O)[C@H]1O)[C@H](O)[C@@H](O)CO [Maltitol]
concentrations that exert no effect (dose-response curves; sub-therapeutic dose) ([1]; compound alone): ≤ 100 nM
synergy with leucine or HMB in stimulating fatty acid oxidation [1]: no synergy

Compound: Fucoxanthin
concentrations that exert no effect (dose-response curves; sub-therapeutic dose) ([1]; compound alone): ≤ 100 nM
